Experimental data taken from PubChem BioAssay (NCI).
“And” between values parts separate entries of the source, which are not always exact repeats. Identical values can stand only once.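 Test compounds were applied to cells in 96-well plates for 48 hours at 5 doses. The concentration for 50% growth inhibition is given as GI50. TGI is the concentration that stops growth completely.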

Experiments:
Experiment in all cases: DTP human tumour cell line panel, 48 h
IGROV1 ovarian = test system: IGROV1 ovarian
MALME-3M melanoma = test system: MALME-3M melanoma
NCI-H460 lung = test system: NCI-H460 lung
TK-10 renal = test system: TK-10 renal
HOP-92 NSCLC = test system: HOP-92 NSCLC
ACHN renal = test system: ACHN renal
HOP-62 NSCLC = test system: HOP-62 NSCLC
MOLT-4 leukemia = test system: MOLT-4 leukemia
UO-31 renal = test system: UO-31 renal
SR leukemia = test system: SR leukemia

SMILES	TGI (IGROV1 ovarian)	TGI (MALME-3M melanoma)	TGI (NCI-H460 lung)	TGI (TK-10 renal)	TGI (HOP-92 NSCLC)	TGI (ACHN renal)	TGI (HOP-62 NSCLC)	TGI (MOLT-4 leukemia)	TGI (UO-31 renal)	GI50 (IGROV1 ovarian)	GI50 (SR leukemia)	TGI (SR leukemia)	GI50 (NCI-H460 lung)	GI50 (TK-10 renal)	GI50 (ACHN renal)	GI50 (HOP-62 NSCLC)	GI50 (MOLT-4 leukemia)	GI50 (UO-31 renal)	GI50 (MALME-3M melanoma)	GI50 (HOP-92 NSCLC)
OC1CN(OC/C=C/c2ccccc2)CC(O)C1O (stereo not given)	> 100 µM	> 100 µM	> 100 µM	> 100 µM	> 100 µM	> 100 µM	> 100 µM	> 100 µM	> 100 µM	–	–	–	–	–	–	–	–	–	–	–
COc1ccc(Nc2c3ccccc3nc3c2c2ccccc2n3C)cc1	> 100 µM	–	> 100 µM	> 100 µM	–	> 100 µM	> 100 µM	5.36 µM	> 100 µM	15.3 µM	2.75 µM	14 µM	5.2 µM	13 µM	21.6 µM	> 100 µM	1.88 µM	> 100 µM	–	–
NC(=O)c1ccccc1NC(=O)C(=O)C(C(=O)c1ccc2ccccc2c1)C1OC(=O)c2ccccc21 (stereo not given)	46.6 µM	26.3 µM	> 100 µM	48.9 µM	32.3 µM	> 100 µM	24.2 µM	23.7 µM	29.4 µM	–	–	–	–	–	–	–	–	–	–	–
N/C(=N\O)c1ncc(-c2ccc(C(F)(F)F)cc2)c(NC2CCCCCC2)n1	10.7 µM	13.9 µM	9.34 µM	9.73 µM	–	13.3 µM	23.2 µM	5.78 µM	10.9 µM	6.72 µM and 2.26 µM	4.49 µM and 1.52 µM	6.68 µM	6.6 µM and 2.6 µM	2.49 µM	4.49 µM and 2.23 µM	7.5 µM and 6.53 µM	5.44 µM and 1.9 µM	–	3.81 µM	–
CCCCCCCCCCCCCCCCOC(=O)C(C(=O)OCCCCCCCCCCCCCCCC)[N+](C)(C)CCOC(C)=O	13.7 µM	41.2 µM	80.6 µM	26.5 µM	18.5 µM	34.9 µM	25.8 µM	–	34.2 µM	–	–	–	–	–	–	–	–	–	–	–
O=C(Nc1cccc(Cl)c1)Nc1cccc(Cl)c1	> 100 µM	> 100 µM	–	> 100 µM	> 100 µM	–	> 88.8 µM	> 100 µM	> 100 µM	37.8 µM	–	–	–	> 100 µM	–	21.9 µM	23.8 µM	> 26 µM	> 100 µM	2.11 µM
O=S(=O)(NCCNc1nccc(-c2c(-c3cccc(O)c3)nc3sccn23)n1)c1ccc(F)cc1	18.1 µM	–	22.8 µM	42.1 µM	57 µM	28.4 µM	56.5 µM	32 µM	21 µM	3.53 µM	2.65 µM	57.3 µM	4.2 µM	11.9 µM	3.53 µM	13.8 µM	5.53 µM	4.32 µM	–	11.5 µM
COc1ccc(/C=C/c2cc(OC)c(O[Si](C)(C)C(C)(C)C)c(OC)c2)cc1	> 100 µM	> 100 µM	> 100 µM	–	> 100 µM	> 100 µM	> 100 µM	> 100 µM	> 100 µM	–	–	–	–	–	–	–	–	–	–	–
CN(C)CCNC(=O)c1cccc2nc3ccc4ccccc4c3nc12	–	–	0.135 µM	0.574 µM	0.392 µM	–	0.352 µM	0.124 µM	0.433 µM	–	–	–	–	–	–	–	–	–	–	–
COC(=O)/C(C#N)=C\N1CCN(C(=O)c2ccco2)C1=S	26.4 µM	63.7 µM	4.95 µM	13.2 µM	43.1 µM	23.3 µM	46.8 µM	> 100 µM	21.3 µM	6.16 µM	–	–	2.47 µM	3.63 µM	4.81 µM	22.3 µM	7.41 µM	5.19 µM	32.7 µM	14 µM
COc1ccc(/C=C2/C(=O)N(C(=O)c3ccccc3O)N=C2C)cc1OC	–	> 100 µM	> 100 µM	> 100 µM	> 100 µM	> 100 µM	> 20.8 µM	> 100 µM	> 100 µM	–	–	> 100 µM	–	–	–	–	–	–	–	–
O=C(Oc1cccnc1)c1ccccc1Nc1ccnc(C(F)(F)F)c1	> 100 µM	> 100 µM	> 35 µM	31.8 µM	> 100 µM	> 74.6 µM	0.214 µM	> 100 µM	> 87.3 µM	21.7 µM	–	–	0.342 µM	0.369 µM	0.353 µM	0.0473 µM	0.0499 µM	3.84 µM	33.1 µM	6.64 µM
Cn1cc(-c2csc(-c3c[nH]c4ncccc34)n2)c2cc(Br)cnc21	> 100 µM	> 100 µM	> 100 µM	> 100 µM	> 100 µM	> 100 µM	11.6 µM	> 100 µM	–	2.21 µM	–	–	2.98 µM	3.77 µM	2.35 µM	2.39 µM	> 100 µM	–	3.01 µM	5.03 µM
O=C(c1cc2ccccc2[nH]1)C(O)(c1cc2ccccc2[nH]1)c1cc2ccccc2[nH]1	> 246 µM	> 246 µM	> 246 µM	> 246 µM	> 246 µM	> 246 µM	> 246 µM	> 246 µM	–	–	–	> 246 µM	–	–	–	–	–	–	–	–
CCOc1ccccc1NC(=O)C(=O)CC(=O)C1=C(C)Nc2ccccc2S1	> 100 µM	> 100 µM	> 100 µM	> 100 µM	> 100 µM	> 100 µM	> 100 µM	> 69.5 µM	> 100 µM	–	–	–	–	–	–	–	–	–	–	–
COC(=O)CCC(NC(=S)N/N=C(\C)c1ccccn1)C(=O)OC (stereo not given)	> 100 µM	> 100 µM	> 100 µM	> 100 µM	> 100 µM	> 100 µM	> 100 µM	> 100 µM	> 100 µM	–	–	–	–	–	–	–	–	–	–	–
Cc1ccc(SSCCCS(=O)O)cc1	27.4 µM	> 100 µM	> 100 µM	> 100 µM	–	> 100 µM	78.4 µM	50.6 µM	> 100 µM	–	–	–	–	–	–	–	–	–	–	–
NC(=S)N/N=C(/CC(=O)c1ccc([N+](=O)[O-])cc1)C(=O)Nc1ncc([N+](=O)[O-])s1	> 100 µM	> 100 µM	> 100 µM	> 100 µM	> 100 µM	> 100 µM	> 100 µM	> 100 µM	> 100 µM	–	–	–	–	–	–	–	–	–	–	–
